Results taken from article PMC9217908, “Screening of commonly prescribed drugs for effects on the CAT1-mediated transport of L-arginine and arginine derivatives” (Amino Acids, 2022).
Like-named read-outs stand apart in the source and are kept apart here.

Assays:
[1] = molecular target: T1, CAT1 (cationic amino acid transporter 1, CAT1/SLC7A1) (Homo sapiens, UniProt P30825); assay: inhibition of [3H]-L-arginine uptake in HEK-CAT1 cells, Lineweaver-Burk; type: cell-based; conditions: substrate L-arginine; competitive
T1 construct: full-length human transporter stably transfected in HEK cells (HEK-CAT1); net uptake against HEK-VC vector control cells

[2] = molecular target: T1, CAT1 (cationic amino acid transporter 1, CAT1/SLC7A1); assay: cell-based; design: species or system HEK-CAT1 (HEK293 stably transfected); Inhibition of net CAT1-mediated [3H]-ADMA (1 uM) uptake, 2.5 min, scintillation counting, vector control subtracted; conditions: HEK293, ADMA 1 uM as substrate; for inhibition at 20 µM: read-out: % Inhibition of ADMA uptake at 20 µM; for inhibition at 200 µM: read-out: % Inhibition of ADMA uptake at 200 µM
In short: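 HEK cells expressing CAT1 and vector-control cells took up [^3H]-L-arginine for 5 min, or [^3H]-L-homoarginine or [^3H]-ADMA (1 μM) for 2.5 min, with or without drug at 20 or 200 µM. Net CAT1 uptake was CAT1 cells minus control cells, and inhibition (%) = 100 − V/V0×100. Negative values mean stimulation; n = 6–9.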

[3] = molecular target: T1, CAT1 (cationic amino acid transporter 1, CAT1/SLC7A1); assay: cell-based; design: species or system HEK-CAT1 (HEK293 stably transfected); Inhibition of net CAT1-mediated [3H]-L-arginine (100 uM) uptake, 5 min, scintillation counting, vector control subtracted; conditions: HEK293, L-arginine 100 uM as substrate; for inhibition at 20 µM: read-out: % Inhibition of L-arginine uptake at 20 µM; for inhibition at 200 µM: read-out: % Inhibition of L-arginine uptake at 200 µM
In short: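 HEK-CAT1 and vector-control HEK-VC cells took up [3H]-L-arginine (100 μM) for 5 min, with or without drug at 20 or 200 µM; [3H]-L-homoarginine or [3H]-ADMA uptake ran 2.5 min. Net uptake is CAT1 minus VC cells, and inhibition (%) = 100 − (V/V0 × 100). Negative values mean stimulated uptake.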

[4] = molecular target: T1, CAT1 (cationic amino acid transporter 1, CAT1/SLC7A1); assay: cell-based; design: species or system HEK-CAT1 (HEK293 stably transfected); Inhibition of net CAT1-mediated [3H]-L-homoarginine (1 uM) uptake, 2.5 min, scintillation counting, vector control subtracted; conditions: HEK293, L-homoarginine 1 uM as substrate; for inhibition at 20 µM: read-out: % Inhibition of L-homoarginine uptake at 20 µM; for inhibition at 200 µM: read-out: % Inhibition of L-homoarginine uptake at 200 µM
In short: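 HEK-CAT1 cells with HEK-VC vector controls; [3H]-L-homoarginine (1 μM) uptake over 2.5 min with or without test compound at 20 µM or 200 µM. Net CAT1 uptake (CAT1 minus VC) gives inhibition (%) = 100 – (V/V0 × 100). Negative values mean stimulated uptake; n = 6–9 from at least two independent experiments.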

[5] = molecular target: T1, CAT1 (cationic amino acid transporter 1, CAT1/SLC7A1); assay: inhibition of [3H]-L-homoarginine uptake in HEK-CAT1 cells; type: cell-based; conditions: read-out: % inhibition at 20 μM
[6] = molecular target: T1, CAT1 (cationic amino acid transporter 1, CAT1/SLC7A1); assay: inhibition of [3H]-L-arginine uptake in HEK-CAT1 cells; type: cell-based
Description: inhibition of [3H]-L-arginine uptake in HEK-CAT1 cells on CAT1 (cationic amino acid transporter 1, CAT1/SLC7A1) | verapamil inhibited CAT1-mediated uptake of L-arginine, L-homoarginine, and ADMA with IC50 values

T1 sequence (P30825 whole entry): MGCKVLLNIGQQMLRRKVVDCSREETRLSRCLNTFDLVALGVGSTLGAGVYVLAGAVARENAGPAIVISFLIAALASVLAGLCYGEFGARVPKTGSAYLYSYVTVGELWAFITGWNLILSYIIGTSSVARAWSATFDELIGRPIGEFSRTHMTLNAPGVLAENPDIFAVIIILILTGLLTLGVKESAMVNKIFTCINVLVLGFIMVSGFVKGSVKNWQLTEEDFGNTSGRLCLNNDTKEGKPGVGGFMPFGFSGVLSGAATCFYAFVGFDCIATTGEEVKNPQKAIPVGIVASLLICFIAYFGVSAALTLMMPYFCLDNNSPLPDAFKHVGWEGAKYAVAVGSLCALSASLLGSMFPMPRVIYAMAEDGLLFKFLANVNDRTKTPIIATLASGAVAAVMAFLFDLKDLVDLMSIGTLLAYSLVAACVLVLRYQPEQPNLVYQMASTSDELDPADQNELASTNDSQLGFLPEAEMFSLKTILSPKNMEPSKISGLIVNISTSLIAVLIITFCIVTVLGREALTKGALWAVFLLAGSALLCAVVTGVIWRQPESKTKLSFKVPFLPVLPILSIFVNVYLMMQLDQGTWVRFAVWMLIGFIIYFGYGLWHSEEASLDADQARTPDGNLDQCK

| SMILES | inhibition at 20 µM [2] [%] | inhibition at 200 µM [2] [%] | inhibition at 20 µM [3] [%] | inhibition at 200 µM [3] [%] | inhibition at 20 µM [4] [%] | inhibition at 200 µM [4] [%] | IC50 [6] [µM] | inhibition of [3H]-L-arginine uptake in HEK-CAT1 cells, Lineweaver-Burk [1] | inhibition at 20 µM [5] [%] |
| --- | --- | --- | --- | --- | --- | --- | --- | --- | --- |
| CN(C)C(=N)NCCC[C@H](N)C(=O)O [ADMA] |  |  |  |  |  |  |  | competitive inhibition pattern for L-homoarginine and ADMA |  |
| N=C(N)NCCCC[C@H](N)C(=O)O [L-homoarginine] |  |  |  |  |  |  |  | competitive inhibition pattern for L-homoarginine and ADMA |  |
| CC(C)NCC(O)COc1cccc2ccccc12 (stereo not drawn) [Propranolol] | -27.2 ± 3.6 | -36.3 ± 9.5 | -0.9 ± 8.1 | -1.1 ± 7.8 | -21.6 ± 0.7 | -3.5 ± 2.1 |  |  |  |
| CCOC(=O)[C@H](CCc1ccccc1)N[C@@H](C)C(=O)N1[C@H](C(=O)O)C[C@@H]2CCC[C@@H]21 [Ramipril] | 0.1 ± 6.9 | -31.1 ± 6.9 | 0.3 ± 12 | -5.8 ± 2.3 | -0.7 ± 11.5 | -6.5 ± 2 |  |  |  |
| CNC(=C[N+](=O)[O-])NCCSCc1ccc(CN(C)C)o1 [Ranitidine] | -0.5 ± 5.8 | 6.1 ± 3.4 | 7.8 ± 1.8 | 2.9 ± 3.9 | -4 ± 0.4 | 6.8 ± 0.6 |  |  |  |
| CC(=O)S[C@@H]1CC2=CC(=O)CC[C@]2(C)[C@H]2CC[C@@]3(C)[C@@H](CC[C@@]34CCC(=O)O4)[C@H]12 [Spironolactone] | 3.2 ± 2.3 | -7.6 ± 2.1 | -3.7 ± 5.3 | -4.8 ± 6.6 | -3.9 ± 5.2 | -11.5 ± 2.8 |  |  |  |
| Nc1nc(N)c2nc(-c3ccccc3)c(N)nc2n1 [Triamterene] | 12.6 ± 3.2 | -10.6 ± 0.6 | 5.1 ± 8.8 | 16.7 ± 1.6 | 10.7 ± 2.1 | 14.1 ± 0.5 |  |  |  |
| COc1cc(Cc2cnc(N)nc2N)cc(OC)c1OC [Trimethoprim] | -13.7 ± 2.8 | -68.1 ± 11.3 | 9.9 ± 4.2 | -16.3 ± 6.7 | -17 ± 1.9 | -13.8 ± 4.1 |  |  |  |
| O=C(O[C@H]1C[C@H]2CC[C@@H](C1)[N+]21CCCC1)C(O)(c1ccccc1)c1ccccc1 [Trospium Chloride] |  | 3 ± 9.1 | 27.1 ± 2.1 | -23.8 ± 4.5 |  | -22.5 ± 2.3 |  |  |  |
| O=C(OC1C[C@H]2CC[C@@H](C1)[N+]21CCCC1)C(O)(c1ccccc1)c1ccccc1 (stereo partly drawn) [trospium] |  |  |  |  |  |  |  |  | 28.6 |

Continued, in another order:

| inhibition at 20 µM [2] [%] | inhibition at 200 µM [2] [%] | inhibition at 20 µM [3] [%] | inhibition at 200 µM [3] [%] | inhibition at 20 µM [4] [%] | inhibition at 200 µM [4] [%] | IC50 [6] [µM] | SMILES | inhibition of [3H]-L-arginine uptake in HEK-CAT1 cells, Lineweaver-Burk [1] | inhibition at 20 µM [5] [%] |
| --- | --- | --- | --- | --- | --- | --- | --- | --- | --- |
| -37.1 ± 7.2 | 23.4 ± 0.3 | 6.9 ± 9.6 | 31.2 ± 2.3 | -25.8 ± 15.5 | 31.6 ± 2.7 |  | CCc1nc(N)nc(N)c1-c1ccc(Cl)cc1 [Pyrimethamine] |  |  |
| 4.4 ± 6.2 | -19.6 ± 7.7 | 29.1 ± 2.8 | 2.7 ± 1 | 4.4 ± 6.2 | 5.9 ± 1.9 |  | C=C[C@H]1CN2CC[C@H]1C[C@@H]2[C@@H](O)c1ccnc2ccc(OC)cc12 [Quinidine] |  |  |
| 9 ± 2.6 | 24.2 ± 0.6 | 4.7 ± 7.9 | 5.2 ± 2.9 | 5 ± 7.5 | 12.5 ± 1.7 |  | COC(=O)[C@H]1[C@H]2C[C@@H]3c4[nH]c5cc(OC)ccc5c4CCN3C[C@H]2C[C@@H](OC(=O)c2cc(OC)c(OC)c(OC)c2)[C@@H]1OC [Reserpine] |  |  |
| -5.5 ± 4.2 |  | -8.1 ± 11.5 |  | -5.6 ± 7.8 |  |  | CO[C@H]1/C=C/O[C@@]2(C)Oc3c(C)c(O)c4c(O)c(c(/C=N/N5CCN(C)CC5)c(O)c4c3C2=O)NC(=O)/C(C)=C\C=C\[C@H](C)[C@H](O)[C@@H](C)[C@@H](O)[C@@H](C)[C@H](OC(C)=O)[C@@H]1C [Rifampicin] |  |  |
| -14.2 ± 1.2 | -11.8 ± 2.4 | 28.5 ± 3.7 | 69.6 ± 4.8 | -10.3 ± 3.6 | 13.4 ± 1.1 |  | C=CC[C@@H]1/C=C(\C)C[C@H](C)C[C@H](OC)[C@H]2O[C@@](O)(C(=O)C(=O)N3CCCC[C@H]3C(=O)O[C@H](/C(C)=C/[C@@H]3CC[C@@H](O)[C@H](OC)C3)[C@H](C)[C@@H](O)CC1=O)[C@H](C)C[C@@H]2OC [Tacrolimus] |  |  |
| -11.3 ± 8.3 | -33.5 ± 3.3 | 10.4 ± 4.4 | 31.7 ± 10.4 | -4.3 ± 4.6 | 31.4 ± 10.1 |  | Clc1ccccc1CN1CCc2sccc2C1 [Ticlopidine] |  |  |
| -26.1 ± 11.5 | -13.4 ± 3.7 | 1.3 ± 2.4 | 24.2 ± 4.5 | 1.8 ± 4.5 | 34.1 ± 3.8 |  | CC(CN(C)C)CN1c2ccccc2CCc2ccccc21 (stereo not drawn) [Trimipramine] |  |  |
| -7.6 ± 4 | -47.5 ± 6 | 12.6 ± 2.5 | -3.1 ± 6.1 | 10.2 ± 1.4 | -9.5 ± 5.1 |  | CCCC(CCC)C(=O)O [Valproic acid] |  |  |
| 36.9 ± 4.1 | 5.1 ± 2.3 | 9.8 ± 4.3 | 9.9 ± 3.1 |  | 9.7 ± 6.1 |  | COc1cc2nc(N3CCN(C(=O)c4ccco4)CC3)nc(N)c2cc1OC [prazosin] |  | 38.2 |
| 24.1 ± 2.3 | 44.2 ± 4.4 | 29.3 ± 1.1 | 27.5 ± 3.7 |  |  | 85.3 | COc1ccc(CCN(C)CCCC(C#N)(c2ccc(OC)c(OC)c2)C(C)C)cc1OC (stereo not drawn) [verapamil] |  |  |
